# Measurements as given in PubChem BioAssay AID1963851 (Molecular Pharmacology Branch, DTP, NCI, 2024).
# System: 188146-221-R-J1-PDC complex spheroid viability
# Experiment: Anticancer human tumor 188146-221-R-J1-PDC patient-derived colon adenocarcinoma cell line growth inhibition [POLQ]
# Conditions: for IC50: curve of first compound; for viability, T/C: stronger effect = lower value
# Summary of the method: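 Complex spheroid viability model combining PDC tumour cells with endothelial (HUVEC) and MSC stromal cells. Novobiocin, ART-558 or RP6685 were tested singly and in combination with standard and investigational anticancer drugs. Each was titrated in half-log steps from near clinical Cmax, or from 10 microM where Cmax was unknown.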
# [1] = second compound 0.0316 µM, first compound 0.0316 µM
# [2] = second compound 0.0316 µM, first compound 0.1 µM
# [3] = second compound 0.1 µM, first compound 0.0316 µM
# [4] = second compound 0.1 µM, first compound 0.1 µM
# [5] = second compound 0.316 µM, first compound 0.0316 µM
# [6] = second compound 0.316 µM, first compound 0.1 µM
# [7] = second compound 1 µM, first compound 0.0316 µM
# [8] = second compound 1 µM, first compound 0.1 µM
# [9] = second compound 3.16 µM, first compound 0.0316 µM
# [10] = second compound 3.16 µM, first compound 0.1 µM
# [11] = second compound 10 µM, first compound 0.0316 µM
# [12] = second compound 10 µM, first compound 0.1 µM
# [13] = second compound 0.0316 µM, first compound 0.316 µM
# [14] = second compound 0.0316 µM, first compound 1 µM
# [15] = second compound 0.0316 µM, first compound 3.16 µM
# [16] = second compound 0.0316 µM, first compound 10 µM
# [17] = second compound 0.1 µM, first compound 0.316 µM
# [18] = second compound 0.1 µM, first compound 1 µM
# [19] = second compound 0.1 µM, first compound 3.16 µM
# [20] = second compound 0.1 µM, first compound 10 µM
# [21] = second compound 0.316 µM, first compound 0.316 µM
# [22] = second compound 0.316 µM, first compound 1 µM
# [23] = second compound 0.316 µM, first compound 3.16 µM
# [24] = second compound 0.316 µM, first compound 10 µM
# [25] = second compound 1 µM, first compound 0.316 µM
# [26] = second compound 1 µM, first compound 1 µM
# [27] = second compound 1 µM, first compound 3.16 µM
# [28] = second compound 1 µM, first compound 10 µM
# [29] = second compound 3.16 µM, first compound 0.316 µM
# [30] = second compound 3.16 µM, first compound 1 µM
# [31] = second compound 3.16 µM, first compound 3.16 µM
# [32] = second compound 3.16 µM, first compound 10 µM
# [33] = second compound 10 µM, first compound 0.316 µM
# [34] = second compound 10 µM, first compound 1 µM
# [35] = second compound 10 µM, first compound 3.16 µM
# [36] = second compound 10 µM, first compound 10 µM
# 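Further: spheroids exposed to compounds for seven days.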
# 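Wherever viability, T/C is given: 100% = DMSO vehicle control viability.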
structure (smiles),measurement,setting,value
CC[C@@]1(O)C(=O)OCc2c1cc1n(c2=O)Cc2cc3c(CN(C)C)c(O)ccc3nc2-1 + COC1C(OC(N)=O)C(O)C(Oc2ccc3c(O)c(NC(=O)c4ccc(O)c(CC=C(C)C)c4)c(=O)oc3c2C)OC1(C)C,IC50,second compound 0.0316 µM,> 100 nM
same,IC50,second compound 0.1 µM,> 100 nM
same,IC50,second compound 0.316 µM,> 100 nM
same,IC50,second compound 1 µM,> 100 nM
same,IC50,second compound 3.16 µM,> 100 nM
same,IC50,second compound 10 µM,> 100 nM
same,"viability, T/C","second compound 0.0316 µM, first compound 0.000316 µM",109%
same,"viability, T/C","second compound 0.0316 µM, first compound 0.001 µM",98.7%
same,"viability, T/C","second compound 0.0316 µM, first compound 0.00316 µM",102%
same,"viability, T/C","second compound 0.0316 µM, first compound 0.01 µM",101%
same,"viability, T/C",[1],98.8%
same,"viability, T/C",[2],68.2%
same,"viability, T/C","second compound 0.1 µM, first compound 0.000316 µM",97.7%
same,"viability, T/C","second compound 0.1 µM, first compound 0.001 µM",100%
same,"viability, T/C","second compound 0.1 µM, first compound 0.00316 µM",89.8%
same,"viability, T/C","second compound 0.1 µM, first compound 0.01 µM",101%
same,"viability, T/C",[3],87.9%
same,"viability, T/C",[4],66.5%
same,"viability, T/C","second compound 0.316 µM, first compound 0.000316 µM",106%
same,"viability, T/C","second compound 0.316 µM, first compound 0.001 µM",95.9%
same,"viability, T/C","second compound 0.316 µM, first compound 0.00316 µM",107%
same,"viability, T/C","second compound 0.316 µM, first compound 0.01 µM",98.1%
same,"viability, T/C",[5],89.2%
same,"viability, T/C",[6],73.9%
same,"viability, T/C","second compound 1 µM, first compound 0.000316 µM",111%
same,"viability, T/C","second compound 1 µM, first compound 0.001 µM",104%
same,"viability, T/C","second compound 1 µM, first compound 0.00316 µM",109%
same,"viability, T/C","second compound 1 µM, first compound 0.01 µM",104%
same,"viability, T/C",[7],90.1%
same,"viability, T/C",[8],79.3%
same,"viability, T/C","second compound 3.16 µM, first compound 0.000316 µM",104%
same,"viability, T/C","second compound 3.16 µM, first compound 0.001 µM",102%
same,"viability, T/C","second compound 3.16 µM, first compound 0.00316 µM",94.5%
same,"viability, T/C","second compound 3.16 µM, first compound 0.01 µM",91.6%
same,"viability, T/C",[9],102%
same,"viability, T/C",[10],67.3%
same,"viability, T/C","second compound 10 µM, first compound 0.000316 µM",96.2%
same,"viability, T/C","second compound 10 µM, first compound 0.001 µM",90.7%
same,"viability, T/C","second compound 10 µM, first compound 0.00316 µM",99.5%
same,"viability, T/C","second compound 10 µM, first compound 0.01 µM",94.6%
same,"viability, T/C",[11],92.1%
same,"viability, T/C",[12],62.9%
COc1cc(C2c3cc4c(cc3C(OC3OC5COC(C)OC5C(O)C3O)C3COC(=O)C23)OCO4)cc(OC)c1O (stereo not drawn) + COC1C(OC(N)=O)C(O)C(Oc2ccc3c(O)c(NC(=O)c4ccc(O)c(CC=C(C)C)c4)c(=O)oc3c2C)OC1(C)C,IC50,second compound 0.0316 µM,905 nM
same,IC50,second compound 0.1 µM,911 nM
same,IC50,second compound 0.316 µM,847 nM
same,IC50,second compound 1 µM,980 nM
same,IC50,second compound 3.16 µM,954 nM
same,IC50,second compound 10 µM,1360 nM
same,"viability, T/C",[1],116%
same,"viability, T/C",[2],103%
same,"viability, T/C",[13],78.1%
same,"viability, T/C",[14],45.9%
same,"viability, T/C",[15],31.3%
same,"viability, T/C",[16],21.4%
same,"viability, T/C",[3],124%
same,"viability, T/C",[4],108%
same,"viability, T/C",[17],79.5%
same,"viability, T/C",[18],50%
same,"viability, T/C",[19],24.8%
same,"viability, T/C",[20],29%
same,"viability, T/C",[5],103%
same,"viability, T/C",[6],111%
same,"viability, T/C",[21],80.4%
same,"viability, T/C",[22],46.5%
same,"viability, T/C",[23],24.7%
same,"viability, T/C",[24],23.4%
same,"viability, T/C",[7],111%
same,"viability, T/C",[8],93.8%
same,"viability, T/C",[25],77.3%
same,"viability, T/C",[26],52.9%
same,"viability, T/C",[27],25.3%
same,"viability, T/C",[28],31.6%
same,"viability, T/C",[9],105%
same,"viability, T/C",[10],103%
same,"viability, T/C",[29],81.9%
same,"viability, T/C",[30],49.7%
same,"viability, T/C",[31],30%
same,"viability, T/C",[32],29.2%
same,"viability, T/C",[11],119%
same,"viability, T/C",[12],103%
same,"viability, T/C",[33],97.3%
same,"viability, T/C",[34],54.1%
same,"viability, T/C",[35],34.7%
same,"viability, T/C",[36],27.4%
Nc1ccn(C2OC(CO)C(O)C2(F)F)c(=O)n1 (stereo not drawn) + COC1C(OC(N)=O)C(O)C(Oc2ccc3c(O)c(NC(=O)c4ccc(O)c(CC=C(C)C)c4)c(=O)oc3c2C)OC1(C)C,IC50,second compound 0.0316 µM,< 31.6 nM
same,IC50,second compound 0.1 µM,32.1 nM
same,IC50,second compound 0.316 µM,< 31.6 nM
same,IC50,second compound 1 µM,< 31.6 nM
same,IC50,second compound 3.16 µM,< 31.6 nM
same,IC50,second compound 10 µM,< 31.6 nM
same,"viability, T/C",[1],46.8%
same,"viability, T/C",[2],29.5%
same,"viability, T/C",[13],17.4%
same,"viability, T/C",[14],14.4%
same,"viability, T/C",[15],15.2%
same,"viability, T/C",[16],13.2%
same,"viability, T/C",[3],50.4%
same,"viability, T/C",[4],29.4%
same,"viability, T/C",[17],13.8%
same,"viability, T/C",[18],12.5%
same,"viability, T/C",[19],14.8%
same,"viability, T/C",[20],14.3%
same,"viability, T/C",[5],41.1%
same,"viability, T/C",[6],28.7%
same,"viability, T/C",[21],21.8%
same,"viability, T/C",[22],12.2%
same,"viability, T/C",[23],12%
same,"viability, T/C",[24],11%
same,"viability, T/C",[7],41.5%
same,"viability, T/C",[8],24.8%
same,"viability, T/C",[25],19.2%
same,"viability, T/C",[26],13.4%
same,"viability, T/C",[27],13.5%
same,"viability, T/C",[28],12.6%
same,"viability, T/C",[9],46.3%
same,"viability, T/C",[10],26.1%
same,"viability, T/C",[29],16.2%
same,"viability, T/C",[30],13.5%
same,"viability, T/C",[31],14%
same,"viability, T/C",[32],13.9%
same,"viability, T/C",[11],45.6%
same,"viability, T/C",[12],20.5%
same,"viability, T/C",[33],16.1%
same,"viability, T/C",[34],12.4%
same,"viability, T/C",[35],16.4%
same,"viability, T/C",[36],13.3%
O=c1[nH]cc(F)c(=O)[nH]1 + COC1C(OC(N)=O)C(O)C(Oc2ccc3c(O)c(NC(=O)c4ccc(O)c(CC=C(C)C)c4)c(=O)oc3c2C)OC1(C)C,IC50,second compound 0.0316 µM,1010 nM
same,IC50,second compound 0.1 µM,1240 nM
same,IC50,second compound 0.316 µM,925 nM
same,IC50,second compound 1 µM,984 nM
same,IC50,second compound 3.16 µM,1790 nM
same,IC50,second compound 10 µM,1500 nM
same,"viability, T/C",[1],107%
same,"viability, T/C",[2],106%
same,"viability, T/C",[13],72.7%
same,"viability, T/C",[14],53.1%
same,"viability, T/C",[15],39.8%
same,"viability, T/C",[16],34.9%
same,"viability, T/C",[3],95.2%
same,"viability, T/C",[4],102%
same,"viability, T/C",[17],75.4%
same,"viability, T/C",[18],53.7%
same,"viability, T/C",[19],41.4%
same,"viability, T/C",[20],35%
same,"viability, T/C",[5],95.8%
same,"viability, T/C",[6],98.5%
same,"viability, T/C",[21],75.4%
same,"viability, T/C",[22],49.3%
same,"viability, T/C",[23],37.6%
same,"viability, T/C",[24],36.6%
same,"viability, T/C",[7],111%
same,"viability, T/C",[8],101%
same,"viability, T/C",[25],72.4%
same,"viability, T/C",[26],49.6%
same,"viability, T/C",[27],43.8%
same,"viability, T/C",[28],36%
same,"viability, T/C",[9],102%
same,"viability, T/C",[10],92.3%
same,"viability, T/C",[29],76%
same,"viability, T/C",[30],52.1%
same,"viability, T/C",[31],49%
same,"viability, T/C",[32],41.3%
same,"viability, T/C",[11],97%
same,"viability, T/C",[12],90.2%
same,"viability, T/C",[33],80.7%
same,"viability, T/C",[34],53.3%
same,"viability, T/C",[35],43.2%
same,"viability, T/C",[36],40.6%
